Reference: PubChem BioAssay AID1259407 (Chemical Carcinogenesis Research Information System (CCRIS), 2018)
Active and inactive are the calls of the source. No rule for the calls is given here.

Tested on: CCRIS mutagenicity, Ames/micronucleus/aberration tests
Test: CCRIS mutagenicity studies
[1] = Test System: AMES SALMONELLA TYPHIMURIUM, Strain/Indicator: TA98, Metabolic Activation: NONE, Method: PREINCUBATION
[2] = Test System: AMES SALMONELLA TYPHIMURIUM, Strain/Indicator: TA100, Metabolic Activation: NONE, Method: PREINCUBATION
[3] = Test System: AMES SALMONELLA TYPHIMURIUM, Strain/Indicator: TA1535, Metabolic Activation: NONE, Method: PREINCUBATION

Measured: mutagenic call

C[C@]12CCC(=O)C=C1CC[C@@H]1[C@@H]2CC[C@]2(C)C(=O)CC[C@@H]12
inactive: End Point: In vivo micronucleus, Test System: Micronucleated bone marrow polychromatic erythrocytes, Species: Rat, Strain/Sex: F344/N / Male, Route: Oral inactive; negative | End Point: In vivo micronucleus, Test System: Micronucleated normochromatic erythrocytes in peripheral blood, Species: Mouse, Strain/Sex: B6C3F1/Female, Route: Oral inactive; negative. (the response was judged equivocal based on a statistically significan | End Point: In vivo micronucleus, Test System: Micronucleated normochromatic erythrocytes in peripheral blood, Species: Mouse, Strain/Sex: B6C3F1/Male, Route: Oral inactive; negative | Test System: Ames Salmonella typhimurium, Strain/Indicator: TA97, Metabolic Activation: Hamster, Liver, S-9, Aroclor 1254 (10%), Method: Preincubation inactive; negative | Test System: Ames Salmonella typhimurium, Strain/Indicator: TA97, Metabolic Activation: Hamster, Liver, S-9, Aroclor 1254 (30%), Method: Preincubation inactive; negative | Test System: Ames Salmonella typhimurium, Strain/Indicator: TA97, Metabolic Activation: None, Method: Preincubation inactive; negative | Test System: Ames Salmonella typhimurium, Strain/Indicator: TA97, Metabolic Activation: Rat, Liver, S-9, Aroclor 1254 (10%), Method: Preincubation inactive; negative | Test System: Ames Salmonella typhimurium, Strain/Indicator: TA97, Metabolic Activation: Rat, Liver, S-9, Aroclor 1254 (30%), Method: Preincubation inactive; negative | Test System: Ames Salmonella typhimurium, Strain/Indicator: TA98, Metabolic Activation: Hamster, Liver, S-9, Aroclor 1254 (10%), Method: Preincubation inactive; negative | Test System: Ames Salmonella typhimurium, Strain/Indicator: TA98, Metabolic Activation: Hamster, Liver, S-9, Aroclor 1254 (30%), Method: Preincubation inactive; negative | Test System: Ames Salmonella typhimurium, Strain/Indicator: TA98, Metabolic Activation: None, Method: Preincubation inactive; negative | Test System: Ames Salmonella typhimurium, Strain/Indicator: TA98, Metabolic Activation: Rat, Liver, S-9, Aroclor 1254 (10%), Method: Preincubation inactive; negative | Test System: Ames Salmonella typhimurium, Strain/Indicator: TA98, Metabolic Activation: Rat, Liver, S-9, Aroclor 1254 (30%), Method: Preincubation inactive; negative | Test System: Ames Salmonella typhimurium, Strain/Indicator: TA100, Metabolic Activation: Hamster, Liver, S-9, Aroclor 1254 (10%), Method: Preincubation inactive; negative | Test System: Ames Salmonella typhimurium, Strain/Indicator: TA100, Metabolic Activation: Hamster, Liver, S-9, Aroclor 1254 (30%), Method: Preincubation inactive; negative | Test System: Ames Salmonella typhimurium, Strain/Indicator: TA100, Metabolic Activation: None, Method: Preincubation inactive; negative | Test System: Ames Salmonella typhimurium, Strain/Indicator: TA100, Metabolic Activation: Rat, Liver, S-9, Aroclor 1254 (10%), Method: Preincubation inactive; negative | Test System: Ames Salmonella typhimurium, Strain/Indicator: TA100, Metabolic Activation: Rat, Liver, S-9, Aroclor 1254 (30%), Method: Preincubation inactive; negative | Test System: Ames Salmonella typhimurium, Strain/Indicator: TA1535, Metabolic Activation: Hamster, Liver, S-9, Aroclor 1254 (10%), Method: Preincubation inactive; negative | Test System: Ames Salmonella typhimurium, Strain/Indicator: TA1535, Metabolic Activation: Hamster, Liver, S-9, Aroclor 1254 (30%), Method: Preincubation inactive; negative | Test System: Ames Salmonella typhimurium, Strain/Indicator: TA1535, Metabolic Activation: None, Method: Preincubation inactive; negative | Test System: Ames Salmonella typhimurium, Strain/Indicator: TA1535, Metabolic Activation: Rat, Liver, S-9, Aroclor 1254 (10%), Method: Preincubation inactive; negative | Test System: Ames Salmonella typhimurium, Strain/Indicator: TA1535, Metabolic Activation: Rat, Liver, S-9, Aroclor 1254 (30%), Method: Preincubation inactive; negative | Test System: E. coli, Strain/Indicator: WP2 uvrA/pKM101, Metabolic Activation: None, Method: Preincubation inactive; negative | Test System: E. coli, Strain/Indicator: WP2 uvrA/pKM101, Metabolic Activation: Rat, Liver, S-9, Aroclor 1254 (10%), Method: Preincubation inactive; negative

COC(F)(F)C(Cl)Cl
inactive: Test System: AMES SALMONELLA TYPHIMURIUM, Strain/Indicator: TA97, Metabolic Activation: HAMSTER, LIVER, S-9, AROCLOR 1254 (10 OR 30%), Method: PREINCUBATION inactive; negative | Test System: AMES SALMONELLA TYPHIMURIUM, Strain/Indicator: TA97, Metabolic Activation: NONE, Method: PREINCUBATION inactive; negative | Test System: AMES SALMONELLA TYPHIMURIUM, Strain/Indicator: TA97, Metabolic Activation: RAT, LIVER, S-9, AROCLOR 1254 (10 OR 30%), Method: PREINCUBATION inactive; negative | Test System: AMES SALMONELLA TYPHIMURIUM, Strain/Indicator: TA98, Metabolic Activation: HAMSTER, LIVER, S-9, AROCLOR 1254 (10 OR 30%), Method: PREINCUBATION inactive; negative | Test System: AMES SALMONELLA TYPHIMURIUM, Strain/Indicator: TA98, Metabolic Activation: HAMSTER, LIVER, S-9, AROCLOR 1254 (30%), Method: DESICCATOR inactive; negative | Test System: AMES SALMONELLA TYPHIMURIUM, Strain/Indicator: TA98, Metabolic Activation: NONE, Method: DESICCATOR inactive; negative | [1] inactive; negative | Test System: AMES SALMONELLA TYPHIMURIUM, Strain/Indicator: TA98, Metabolic Activation: RAT, LIVER, S-9, AROCLOR 1254 (10 OR 30%), Method: PREINCUBATION inactive; negative | Test System: AMES SALMONELLA TYPHIMURIUM, Strain/Indicator: TA98, Metabolic Activation: RAT, LIVER, S-9, AROCLOR 1254 (30%), Method: DESICCATOR inactive; negative | Test System: AMES SALMONELLA TYPHIMURIUM, Strain/Indicator: TA100, Metabolic Activation: HAMSTER, LIVER, S-9, AROCLOR 1254 (10 OR 30%), Method: PREINCUBATION inactive; negative | Test System: AMES SALMONELLA TYPHIMURIUM, Strain/Indicator: TA100, Metabolic Activation: HAMSTER, LIVER, S-9, AROCLOR 1254 (30%), Method: DESICCATOR inactive; negative | Test System: AMES SALMONELLA TYPHIMURIUM, Strain/Indicator: TA100, Metabolic Activation: NONE, Method: DESICCATOR inactive; negative | [2] inactive; negative | Test System: AMES SALMONELLA TYPHIMURIUM, Strain/Indicator: TA100, Metabolic Activation: RAT, LIVER, S-9, AROCLOR 1254 (10 OR 30%), Method: PREINCUBATION inactive; negative | Test System: AMES SALMONELLA TYPHIMURIUM, Strain/Indicator: TA100, Metabolic Activation: RAT, LIVER, S-9, AROCLOR 1254 (30%), Method: DESICCATOR inactive; negative | Test System: AMES SALMONELLA TYPHIMURIUM, Strain/Indicator: TA1535, Metabolic Activation: HAMSTER, LIVER, S-9, AROCLOR 1254 (10 OR 30%), Method: PREINCUBATION inactive; negative | [3] inactive; negative | Test System: AMES SALMONELLA TYPHIMURIUM, Strain/Indicator: TA1535, Metabolic Activation: RAT, LIVER, S-9, AROCLOR 1254 (10 OR 30%), Method: PREINCUBATION inactive; negative

COc1cc(OC)c(Cl)c(-n2c(-c3ccccc3)cc(=O)c(C)c2-c2ccc(F)cc2)c1
inactive: [1] inactive; negative | Test System: AMES SALMONELLA TYPHIMURIUM, Strain/Indicator: TA98, Metabolic Activation: S-9, Method: PREINCUBATION inactive; negative | [2] inactive; negative | Test System: AMES SALMONELLA TYPHIMURIUM, Strain/Indicator: TA100, Metabolic Activation: S-9, Method: PREINCUBATION inactive; negative | Test System: AMES SALMONELLA TYPHIMURIUM, Strain/Indicator: TA102, Metabolic Activation: NONE, Method: PREINCUBATION inactive; negative | Test System: AMES SALMONELLA TYPHIMURIUM, Strain/Indicator: TA102, Metabolic Activation: S-9, Method: PREINCUBATION inactive; negative | [3] inactive; negative | Test System: AMES SALMONELLA TYPHIMURIUM, Strain/Indicator: TA1535, Metabolic Activation: S-9, Method: PREINCUBATION inactive; negative | Test System: AMES SALMONELLA TYPHIMURIUM, Strain/Indicator: TA1537, Metabolic Activation: NONE, Method: PREINCUBATION inactive; negative | Test System: AMES SALMONELLA TYPHIMURIUM, Strain/Indicator: TA1537, Metabolic Activation: S-9, Method: PREINCUBATION inactive; negative | Test System: E. COLI, Strain/Indicator: WP2 UVRA, Metabolic Activation: NONE, Method: PREINCUBATION inactive; negative | Test System: E. COLI, Strain/Indicator: WP2 UVRA, Metabolic Activation: S-9, Method: PREINCUBATION inactive; negative
